Series [1] deals with NaV1.1 (Homo sapiens (Human), UniProt P35498). Kind of series: Sodium Influx Assay (Flux), NaV1.1. In kind it is cell-based. To be noted: Trex HEK293 cells, ANG2 dye; arithmetic mean.
Series [2] deals with NaV1.5 (Homo sapiens (Human), UniProt Q14524). Briefly: Sodium Influx Assay (Flux), NaV1.5. To be noted: read-out: Flux NaV1.5 IC50; Trex HEK293 cells, ANG2 dye; arithmetic mean.
The target of series [3] is NaV1.6 (Homo sapiens (Human), UniProt Q9UQD0). Kind of series: Sodium Influx Assay (Flux), NaV1.6. The settings on record: read-out: Flux NaV1.6 IC50; Trex HEK293 cells, ANG2 dye; arithmetic mean.

Structures can show the parent of a compound that is named as a salt.

For orientation: IC50 means the point on the concentration scale where inhibition reaches its midpoint.

Sequence of NaV1.5 (Q14524 other isoform, or with tags, fused parts or gaps): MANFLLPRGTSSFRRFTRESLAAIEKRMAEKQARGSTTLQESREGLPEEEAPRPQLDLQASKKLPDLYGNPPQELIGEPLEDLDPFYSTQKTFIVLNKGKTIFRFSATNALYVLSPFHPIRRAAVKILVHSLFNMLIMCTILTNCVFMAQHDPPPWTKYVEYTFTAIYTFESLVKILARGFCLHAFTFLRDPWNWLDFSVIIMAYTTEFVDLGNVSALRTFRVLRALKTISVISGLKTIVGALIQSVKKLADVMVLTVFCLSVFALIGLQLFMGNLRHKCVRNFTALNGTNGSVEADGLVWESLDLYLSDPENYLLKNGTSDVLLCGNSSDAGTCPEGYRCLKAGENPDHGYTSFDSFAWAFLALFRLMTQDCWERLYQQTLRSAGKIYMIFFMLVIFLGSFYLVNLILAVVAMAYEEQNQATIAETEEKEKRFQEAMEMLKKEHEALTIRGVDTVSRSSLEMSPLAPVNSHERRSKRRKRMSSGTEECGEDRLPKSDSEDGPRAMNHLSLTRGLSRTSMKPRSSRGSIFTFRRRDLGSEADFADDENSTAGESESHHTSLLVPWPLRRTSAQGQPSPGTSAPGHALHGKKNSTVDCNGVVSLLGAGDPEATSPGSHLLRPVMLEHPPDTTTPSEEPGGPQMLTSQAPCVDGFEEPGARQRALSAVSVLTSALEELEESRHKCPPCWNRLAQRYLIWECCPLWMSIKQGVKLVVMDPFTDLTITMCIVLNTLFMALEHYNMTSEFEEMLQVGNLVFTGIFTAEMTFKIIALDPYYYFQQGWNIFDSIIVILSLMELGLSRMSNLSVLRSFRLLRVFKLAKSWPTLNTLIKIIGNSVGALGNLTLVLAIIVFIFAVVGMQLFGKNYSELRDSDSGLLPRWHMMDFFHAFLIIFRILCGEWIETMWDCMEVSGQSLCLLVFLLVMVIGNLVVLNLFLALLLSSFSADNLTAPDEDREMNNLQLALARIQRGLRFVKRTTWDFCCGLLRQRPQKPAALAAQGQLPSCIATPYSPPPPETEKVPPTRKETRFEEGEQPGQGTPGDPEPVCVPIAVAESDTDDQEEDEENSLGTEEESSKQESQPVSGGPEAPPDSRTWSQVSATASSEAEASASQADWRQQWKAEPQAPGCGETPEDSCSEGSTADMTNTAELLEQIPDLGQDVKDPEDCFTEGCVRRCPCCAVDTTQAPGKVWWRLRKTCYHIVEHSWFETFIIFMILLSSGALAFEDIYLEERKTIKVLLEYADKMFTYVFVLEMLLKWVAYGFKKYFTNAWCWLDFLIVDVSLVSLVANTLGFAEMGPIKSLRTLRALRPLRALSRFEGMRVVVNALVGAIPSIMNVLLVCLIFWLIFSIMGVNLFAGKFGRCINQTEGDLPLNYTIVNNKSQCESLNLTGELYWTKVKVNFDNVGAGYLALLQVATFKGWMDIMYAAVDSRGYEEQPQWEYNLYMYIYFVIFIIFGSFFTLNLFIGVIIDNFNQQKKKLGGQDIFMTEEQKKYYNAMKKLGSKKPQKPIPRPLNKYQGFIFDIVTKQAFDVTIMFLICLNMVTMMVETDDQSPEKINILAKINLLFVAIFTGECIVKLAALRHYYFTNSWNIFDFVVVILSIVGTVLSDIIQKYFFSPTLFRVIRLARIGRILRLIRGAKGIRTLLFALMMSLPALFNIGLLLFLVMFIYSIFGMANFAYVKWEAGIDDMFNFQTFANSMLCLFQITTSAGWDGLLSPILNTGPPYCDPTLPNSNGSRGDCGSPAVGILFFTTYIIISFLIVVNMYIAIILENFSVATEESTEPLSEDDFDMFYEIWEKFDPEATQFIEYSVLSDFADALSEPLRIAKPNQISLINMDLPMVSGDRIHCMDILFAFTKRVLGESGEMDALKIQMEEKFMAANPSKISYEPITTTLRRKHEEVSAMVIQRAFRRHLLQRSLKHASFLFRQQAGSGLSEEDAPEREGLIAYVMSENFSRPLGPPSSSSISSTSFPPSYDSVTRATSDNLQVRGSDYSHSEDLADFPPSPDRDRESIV

Regarding `COc1ccc(F)c(CN2CC[C@H](N(C)c3cc(F)c(S(=O)(=O)Nc4cscn4)cc3Cl)C2)c1` [Example 173, (S)-5-chloro-2-fluoro-4-((1-(2-fluoro-5-methoxybenzyl)-pyrrolidin-3-yl)(methyl)amino)-N-(thiazol-4-yl)benzene-sulfonamide 2,2,2-trifluoroacetate], the 50% inhibitory concentration (IC50) in series [1] turned out to be 8.75 µM; in series [2] it was 9.86 µM; in series [3], 3.34 µM.

For the molecule `Cc1cc(S(=O)(=O)Nc2ccc(F)cn2)c(F)cc1N(C)[C@H]1CCN(Cc2ccccc2)C1` [Example 306, (S)-4-((1-benzylpyrrolidin-3-yl)(methyl)amino)-2-fluoro-N-(5-fluoropyridin-2-yl)-5-methylbenzenesulfonamide], the half-maximal inhibitory concentration (IC50) in series [1] is 6.73 µM; in series [2], 11.9 µM; in series [3] it was 4.56 µM.

Take `C[C@@H]1CN(Cc2ccccc2)C[C@@H]1Nc1ccc(S(=O)(=O)Nc2nccs2)cc1Cl` (relative stereo) [Example 75, 4-((cis-1-benzyl-4-methylpyrrolidin-3-yl)amino)-3-chloro-N-(thiazol-2-yl)benzenesulfonamide]: the figures for the IC50 in series [1], in series [2] and in series [3] were 4.19 µM, 8.99 µM and 0.661 µM, respectively.

For `Cc1cc(S(=O)(=O)Nc2ccon2)c(F)cc1N(C)[C@H]1CCN(Cc2ccccc2)C1` [Example 229, (S)-4-((1-benzylpyrrolidin-3-yl)(methyl)amino)-2-fluoro-N-(isoxazol-3-yl)-5-methylbenzenesulfonamide 2,2,2-trifluoroacetate], the IC50 in series [1] is more than 30 µM; in series [2] it was more than 30 µM; in series [3] it was 1.56 µM.

`CN(c1cc(F)c(S(=O)(=O)Nc2cscn2)cc1Cl)[C@H]1CCN(Cc2ccnc(C(F)(F)F)c2)C1` [Example 185, (S)-5-chloro-2-fluoro-4-(methyl(1-((2-(trifluoromethyl)-pyridin-4-yl)methyl)pyrrolidin-3-yl)amino)-N-(thiazol-4-yl)benzene-sulfonamide]: the 50% inhibitory concentration (IC50) in series [1] is 8.81 µM; in series [2], 22.4 µM; in series [3], 7.02 µM.

For the molecule `Cc1cccc(CN2CC[C@H](N(C)c3cc(F)c(S(=O)(=O)Nc4cscn4)cc3Cl)C2)c1F` [Example 191, (S)-5-chloro-2-fluoro-4-((1-(2-fluoro-3-methylbenzyl)-pyrrolidin-3-yl)(methyl)amino)-N-(thiazol-4-yl)benzene-sulfonamide], the IC50 was determined as 8.9 µM in series [1], 8.21 µM in series [2] and 0.587 µM in series [3].

For the molecule `COc1cccc(CN2CCC(Oc3ccc(S(=O)(=O)Nc4nccs4)cc3Cl)CC2)c1` [Example 84, 3-chloro-4-(1-(3-methoxybenzyl)piperidin-4-yloxy)-N-(thiazol-2-yl)benzenesulfonamide], the half-inhibitory concentration (IC50) is 6 µM in series [1], 3.54 µM in series [2] and 0.525 µM in series [3].

In the case of `COC(=O)c1cccc(CN2CC[C@H](N(C)c3cc(F)c(S(=O)(=O)Nc4cscn4)cc3Cl)C2)c1` [Example 174, methyl (S)-3-((3-((2-chloro-5-fluoro-4-(N-(thiazol-4-yl)sulfamoyl)-phenyl)(methyl)-amino)pyrrolidin-1-yl)methyl)benzoate], the IC50 is 10.2 µM in series [1], 16.2 µM in series [2] and 9.16 µM in series [3].

Regarding `O=S(=O)(Nc1nccs1)c1ccc(OC2CCN(CC3CCCCC3)CC2)c(Cl)c1` [Example 6, 3-chloro-4-((1-(cyclohexylmethyl)piperidin-4-yl)oxy)-N-(thiazol-2-yl)benzenesulfonamide 2,2,2-trifluoroacetate], the results for the IC50 in series [1], in series [2] and in series [3] were 12.2 µM, more than 30 µM and 7.52 µM, respectively.

Regarding `O=S(=O)(Nc1nccs1)c1ccc(N[C@@H]2CCN(Cc3cccc(Cl)c3)C2)c(Cl)c1` [Example 69, (R)-3-chloro-4-((1-(3-chlorobenzyl)pyrrolidin-3-yl)amino)-N-(thiazol-2-yl)benzenesulfonamide], the half-inhibitory concentration (IC50) was 1.76 µM in series [1], 6.15 µM in series [2] and 0.697 µM in series [3].

On to `CN(c1ccc(S(=O)(=O)Nc2ncns2)cc1Cl)[C@H]1CCN(Cc2c(F)cccc2F)C1` [Example 326, (S)-3-chloro-4-((1-(2,6-difluorobenzyl)pyrrolidin-3-yl)(methyl)amino)-N-(1,2,4-thiadiazol-5-yl)benzenesulfonamide], for which the figures for the half-inhibitory concentration (IC50) in series [1], in series [2] and in series [3] were more than 30 µM, 24.5 µM and 0.303 µM, respectively.

Regarding `CN(c1cc(F)c(S(=O)(=O)Nc2cscn2)cc1Cl)[C@H]1CCN(Cc2ccccc2OC(F)F)C1` [Example 210, (S)-5-chloro-4-((1-(2-(difluoromethoxy)benzyl)pyrrolidin-3-yl)(methyl)amino)-2-fluoro-N-(thiazol-4-yl)benzenesulfonamide], the figures for the half-inhibitory concentration (IC50) in series [1], in series [2] and in series [3] were 7.13 µM, 8.36 µM and 1.27 µM, respectively.

As to `Cc1cc(S(=O)(=O)Nc2cscn2)c(F)cc1N(C)[C@H]1CCN([C@H]2C[C@H](c3ccccc3)C2)C1` [Example 117, 2-fluoro-5-methyl-4-(methyl((S)-1-((1r,3S)-3-phenylcyclobutyl)-pyrrolidin-3-yl)amino)-N-(thiazol-4-yl)benzenesulfonamide formate], the concentration for half-maximal inhibition (IC50) in series [1] is 2.26 µM; in series [2], 3.09 µM; in series [3], 1.45 µM.

Take `Cc1cc(CN2CC[C@H](N(C)c3cc(F)c(S(=O)(=O)Nc4cscn4)cc3C)C2)ns1` [Example 121, (S)-2-fluoro-5-methyl-4-(methyl(1-((5-methylisothiazol-3-yl)methyl)pyrrolidin-3-yl)amino)-N-(thiazol-4-yl)benzenesulfonamide formate]: the IC50 in series [1] is more than 30 µM; in series [2], more than 30 µM; in series [3] it was 1.47 µM.

Consider `O=S(=O)(Nc1nccs1)c1cc(Cl)c(O[C@@H]2C[C@H]3CC[C@@H](C2)N3Cc2cccc(Cl)c2)cc1F` [Example 18, 5-chloro-4-(((1R,3s,5S)-8-(3-chlorobenzyl)-8-azabicyclo[3.2.1]octan-3-yl)oxy)-2-fluoro-N-(thiazol-2-yl)benzenesulfonamide 2,2,2-trifluoroacetate], for which the half-inhibitory concentration (IC50) in series [1] was more than 30 µM; in series [2], more than 30 µM; in series [3], 1.06 µM.

Consider `Cc1ccnc(CN2CCC(Oc3ccc(S(=O)(=O)Nc4nccs4)cc3Cl)CC2)c1` [Example 14, 3-chloro-4-((1-((4-methylpyridin-2-yl)methyl)piperidin-4-yl)oxy)-N-(thiazol-2-yl)benzenesulfonamide], for which the results for the half-inhibitory concentration (IC50) in series [1], in series [2] and in series [3] were more than 30 µM, 10.7 µM and 0.878 µM, respectively.

As for `Cc1csc(CN2CC[C@H](N(C)c3cc(F)c(S(=O)(=O)Nc4cscn4)cc3C)C2)n1` [Example 129, (S)-2-fluoro-5-methyl-4-(methyl(1-((4-methylthiazol-2-yl)methyl)pyrrolidin-3-yl)amino)-N-(thiazol-4-yl)benzenesulfonamide], the IC50 in series [1] was more than 30 µM; in series [2], more than 30 µM; in series [3] it was 0.828 µM.

For the molecule `Cc1ccc(CN2CC[C@H](N(C)c3cc(F)c(S(=O)(=O)Nc4cscn4)cc3Cl)C2)cc1` [Example 201, (S)-5-chloro-2-fluoro-4-(methyl(1-(4-methylbenzyl)pyrrolidin-3-yl)amino)-N-(thiazol-4-yl)benzenesulfonamide], the IC50 in series [1] was determined as 5.74 µM; in series [2], 15 µM; in series [3], 3.32 µM.

Take `C[C@H](c1ccccc1)N1CCC(Oc2ccc(S(=O)(=O)Nc3cscn3)c(F)c2F)CC1` [Example 313, (R)-2,3-difluoro-4-((1-(1-phenylethyl)piperidin-4-yl)oxy)-N-(thiazol-4-yl)benzenesulfonamide formate]: the concentration for half-maximal inhibition (IC50) in series [1] is 29.6 µM; in series [2] it was more than 30 µM; in series [3] it was 0.936 µM.

As for `CN(c1cc(F)c(S(=O)(=O)Nc2nccs2)cc1Cl)[C@H]1CCN(Cc2ccccc2)C1` [Example 39, (S)-4-((1-benzylpyrrolidin-3-yl)(methyl)amino)-5-chloro-2-fluoro-N-(thiazol-2-yl)benzenesulfonamide bis(trifluoroacetic acid) salt], the results for the IC50 in series [1], in series [2] and in series [3] were 4.96 µM, 13.1 µM and 0.732 µM, respectively.

On to `CN(c1ccc(S(=O)(=O)Nc2ncns2)cc1Cl)[C@H]1CCN(Cc2cccc(Cl)c2F)C1` [Example 32, (S)-3-chloro-4-((1-(3-chloro-2-fluorobenzyl)pyrrolidin-3-yl)(methyl)amino)-N-(1,2,4-thiadiazol-5-yl)benzenesulfonamide], for which the figures for the half-inhibitory concentration (IC50) in series [1], in series [2] and in series [3] were 6.55 µM, 7.41 µM and 0.047 µM, respectively.

Turning to `O=S(=O)(Nc1nccs1)c1ccc(OC2CCN(C3CCc4ccccc43)CC2)c(Cl)c1` (stereo not drawn) [Example 49, 3-chloro-4-((1-(2,3-dihydro-1H-inden-1-yl)piperidin-4-yl)oxy)-N-(thiazol-2-yl)benzenesulfonamide 2,2,2-trifluoroacetate], the IC50 in series [1] is 5.59 µM; in series [2], 5.4 µM; in series [3], 0.491 µM.

`Cc1cc(S(=O)(=O)Nc2cscn2)c(F)cc1N(C)[C@H]1CCN(Cc2ccn(CC(F)(F)F)n2)C1` [Example 118, (S)-2-fluoro-5-methyl-4-(methyl(1-((1-(2,2,2-trifluoroethyl)-1H-pyrazol-3-yl)methyl)pyrrolidin-3-yl)amino)-N-(thiazol-4-yl)benzenesulfonamide]: the figures for the IC50 in series [1], in series [2] and in series [3] were 12.9 µM, more than 30 µM and 0.058 µM, respectively.

Take `CN(c1cc(F)c(S(=O)(=O)Nc2cscn2)cc1Cl)[C@H]1CCN(Cc2cccc(C(F)(F)F)n2)C1` [Example 187, (S)-5-chloro-2-fluoro-4-(methyl(1-((6-(trifluoromethyl)-pyridin-2-yl)methyl)pyrrolidin-3-yl)amino)-N-(thiazol-4-yl)benzene-sulfonamide]: the half-inhibitory concentration (IC50) in series [1] was 17.3 µM; in series [2] it was 25.4 µM; in series [3] it was 1.01 µM.

Source of the values: patent US10246453B2, “Benzenesulfonamide compounds and their use as therapeutic agents” (Xenon Pharmaceuticals Inc., priority 2016, dated 2019).
